Reference: patent publication US4605744A, “Imidazole derivatives” (Hoffmann-La Roche Inc., priority 1985, dated 1986)
Counter-ions that a name gives are not always drawn. Like-named read-outs stand apart in the source and are kept apart here.

Assays:
Format in all cases: cell-based
[1] = system: C. freundii 8ASM; experiment: In vitro antibacterial activity (MIC); conditions: Citrobacter freundii, 8ASM, C. freundii 8ASM; read-out: MIC
Summary of the method: (§1)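 Broth microdilution in Mueller-Hinton broth, drug range 128 to 0.008 μg/ml. Each well received 1.5 μl of a 10^-2 dilution of an overnight culture; sealed trays were incubated overnight at 37° C. MIC = lowest concentration with no visible growth.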

[2] = system: S. aureus Giorgio; experiment: In vitro antibacterial activity (MIC); conditions: Staphylococcus aureus
Summary of the method: as §1

[3] = system: E. cloacae 214; experiment: In vitro antibacterial activity (MIC); conditions: Enterobacter cloacae, 214, E. cloacae 214; read-out: MIC
Summary of the method: as §1

[4] = system: P. vulgaris ATCC 6380; experiment: In vitro antibacterial activity (MIC); conditions: Proteus vulgaris, ATCC6380, P. vulgaris ATCC 6380; read-out: MIC
Summary of the method: as §1

[5] = system: P. aeruginosa B; experiment: In vitro antibacterial activity (MIC); conditions: Pseudomonas aeruginosa, read-out: MIC
Summary of the method: as §1

[6] = system: S. marcescens 5805; experiment: In vitro antibacterial activity (MIC); conditions: Serratia marcescens, 5805, S. marcescens 5805; read-out: MIC
Summary of the method: as §1

[7] = system: P. aeruginosa 5712; experiment: In vitro antibacterial activity (MIC); conditions: Pseudomonas aeruginosa; P. aeruginosa 5712; read-out: MIC
Summary of the method: as §1

[8] = system: S. marcescens S714; experiment: In vitro antibacterial activity (MIC); conditions: Serratia marcescens, S714, S. marcescens S714; read-out: MIC
Summary of the method: as §1

[9] = system: P. vulgaris 101; experiment: In vitro antibacterial activity (MIC); conditions: Proteus vulgaris, 101, P. vulgaris 101; read-out: MIC
Summary of the method: as §1

[10] = system: S. marcescens S4; experiment: In vitro antibacterial activity (MIC); conditions: Serratia marcescens, S4, S. marcescens S4; read-out: MIC
Summary of the method: as §1

[11] = system: C. diversus CDC 1663-72; experiment: In vitro antibacterial activity (MIC); conditions: Citrobacter koseri, CDC166372; C. diversus CDC 1663-72; read-out: MIC
Summary of the method: as §1

[12] = system: S. marcescens S3; experiment: In vitro antibacterial activity (MIC); conditions: Serratia marcescens; S. marcescens S3; read-out: MIC
Summary of the method: as §1

[13] = system: E. coli 5152; experiment: In vitro antibacterial activity (MIC)
Summary of the method: as §1

[14] = system: S. pneumoniae 6301; experiment: In vitro antibacterial activity (MIC); conditions: Streptococcus pneumoniae, 6301
Summary of the method: as §1

[15] = system: E. coli 387-1; experiment: In vitro antibacterial activity (MIC); conditions: Escherichia coli, 3871, E. coli 387-1; read-out: MIC
Summary of the method: as §1

[16] = system: E. cloacae 9570A; experiment: In vitro antibacterial activity (MIC); conditions: Enterobacter cloacae, read-out: MIC
Summary of the method: as §1

[17] = system: E. cloacae 5699; experiment: In vitro antibacterial activity (MIC); conditions: Enterobacter cloacae, 5699, E. cloacae 5699; read-out: MIC
Summary of the method: as §1

[18] = system: S. schottmuelleri; experiment: In vitro antibacterial activity (MIC); conditions: read-out: MIC
Summary of the method: as §1

[19] = system: E. aerogenes 503-478; experiment: In vitro antibacterial activity (MIC); conditions: Klebsiella aerogenes, 503478, E. aerogenes 503-478; read-out: MIC
Summary of the method: as §1

[20] = system: K. pneumoniae 5096; experiment: In vitro antibacterial activity (MIC); conditions: Klebsiella pneumoniae; K. pneumoniae 5096; read-out: MIC
Summary of the method: as §1

[21] = system: S. pyogenes 503-782; experiment: In vitro antibacterial activity (MIC); conditions: Streptococcus pyogenes, 503782; S. pyogenes 503-782; read-out: MIC
Summary of the method: as §1

[22] = system: S. typhi P58A; experiment: In vitro antibacterial activity (MIC); conditions: Salmonella enterica, TYPHI
Summary of the method: as §1

[23] = system: P. aeruginosa 8710; experiment: In vitro antibacterial activity (MIC); conditions: Pseudomonas aeruginosa; P. aeruginosa 8710; read-out: MIC
Summary of the method: as §1

[24] = system: K. pneumoniae HE7; experiment: In vitro antibacterial activity (MIC); conditions: Klebsiella pneumoniae; K. pneumoniae HE7; read-out: MIC
Summary of the method: as §1

[25] = system: P. aeruginosa POW 151; experiment: In vitro antibacterial activity (MIC); conditions: Pseudomonas aeruginosa, POW151
Summary of the method: as §1

[26] = system: S. marcescens S1; experiment: In vitro antibacterial activity (MIC); conditions: Serratia marcescens, S1, S. marcescens S1; read-out: MIC
Summary of the method: as §1

[27] = system: K. pneumoniae 35; experiment: In vitro antibacterial activity (MIC); conditions: Klebsiella pneumoniae; K. pneumoniae 35; read-out: MIC
Summary of the method: as §1

[28] = system: E. cloacae 24; experiment: In vitro antibacterial activity (MIC)
Summary of the method: as §1

[29] = system: E. aerogenes 83; experiment: In vitro antibacterial activity (MIC); conditions: Klebsiella aerogenes, 83, E. aerogenes 83; read-out: MIC
Summary of the method: as §1

[30] = system: K. pneumoniae 503-994; experiment: In vitro antibacterial activity (MIC); conditions: Klebsiella pneumoniae, 503994, K. pneumoniae 503-994; read-out: MIC
Summary of the method: as §1

[31] = system: E. cloacae 9295; experiment: In vitro antibacterial activity (MIC); conditions: Enterobacter cloacae, 9295, E. cloacae 9295; read-out: MIC
Summary of the method: as §1

[32] = system: E. coli 4; experiment: In vitro antibacterial activity (MIC)
Summary of the method: as §1

[33] = system: P. mirabilis 503-1136; experiment: In vitro antibacterial activity (MIC); conditions: Proteus mirabilis, 5031136, P. mirabilis 503-1136; read-out: MIC
Summary of the method: as §1

[34] = system: E. coli 48; experiment: In vitro antibacterial activity (MIC); conditions: Escherichia coli, 48, E. coli 48; read-out: MIC
Summary of the method: as §1

[35] = system: C. freundii CDC6; experiment: In vitro antibacterial activity (MIC); conditions: Citrobacter freundii, CDC6, C. freundii CDC6; read-out: MIC
Summary of the method: as §1

[36] = system: S. marcescens S147; experiment: In vitro antibacterial activity (MIC); conditions: Serratia marcescens; S. marcescens S147; read-out: MIC
Summary of the method: as §1

[37] = system: P. mirabilis 2; experiment: In vitro antibacterial activity (MIC); conditions: Proteus mirabilis, 2, P. mirabilis 2; read-out: MIC
Summary of the method: as §1

[38] = system: K. pneumoniae 4964; experiment: In vitro antibacterial activity (MIC)
Summary of the method: as §1

[39] = system: E. coli 257; experiment: In vitro antibacterial activity (MIC, Mueller-Hinton broth)
Summary of the method: as §1

[40] = system: S. pneumoniae 6302; experiment: In vitro antibacterial activity (MIC); conditions: Streptococcus pneumoniae, 6302, S. pneumoniae 6302; read-out: MIC
Summary of the method: as §1

[41] = system: S. aureus Smith; experiment: In vitro antibacterial activity (MIC); conditions: Staphylococcus aureus, S. aureus Smith; read-out: MIC
Summary of the method: as §1

SMILES	MIC [1] [µg/mL]	MIC [3] [µg/mL]	MIC [4] [µg/mL]	MIC [6] [µg/mL]	MIC [8] [µg/mL]	MIC [9] [µg/mL]	MIC [10] [µg/mL]	MIC [11] [µg/mL]	MIC [12] [µg/mL]	MIC [15] [µg/mL]	MIC [16] [µg/mL]	MIC [17] [µg/mL]	MIC [19] [µg/mL]	MIC [20] [µg/mL]	MIC [22] [µg/mL]	MIC [23] [µg/mL]	MIC [24] [µg/mL]	MIC [25] [µg/mL]	MIC [26] [µg/mL]	MIC [27] [µg/mL]	also measured
CC1(C)S[C@@H]2[C@H](N=CN3CCC(CCn4ccnc4)CC3)C(=O)N2[C@H]1C(=O)O [B, [2S-2alpha,5alpha,6beta)]-6-[[[4-[2-(1H-imidazol-1-yl)ethyl]-1-piperidinyl]methylene]amino]-3,3-dimethyl-7-oxo-4-thia-1-azabicyclo[3.2.0]heptane-2-carboxylic acid hydrate hydrochloride]	0.062	1	0.5	1	1	1	1	0.25	0.5	8	0.5	0.5	2	0.25	0.062	> 128	> 128	> 128	0.5	1	MIC [2]: 32 µg/mL; MIC [5]: > 128 µg/mL; MIC [7]: > 128 µg/mL; MIC ([13]; Escherichia coli, 5152): 16 µg/mL; MIC [14]: 4 µg/mL; MIC [18]: 0.25 µg/mL; MIC [21]: 8 µg/mL; MIC ([28]; Enterobacter cloacae, 24): 2 µg/mL; MIC [29]: 0.5 µg/mL; MIC [30]: 0.25 µg/mL; MIC [31]: 0.5 µg/mL; MIC ([32]; Escherichia coli, 4): 8 µg/mL; MIC [33]: 8 µg/mL; MIC [34]: 0.25 µg/mL; MIC [35]: 0.25 µg/mL; MIC [36]: 0.5 µg/mL; MIC [37]: 1 µg/mL; MIC ([38]; Klebsiella pneumoniae, 4964): 0.5 µg/mL; MIC ([39]; Escherichia coli, 257): 0.25 µg/mL
CC1(C)S[C@@H]2[C@H](N=CN3CCC(Cc4ncc[nH]4)CC3)C(=O)N2[C@H]1C(=O)O [Q, [2S-(2alpha,5alpha,6beta)]-6-[[[4-(1H-imidazol-2-yl-methyl)-1-piperidinyl]methylene]amino]-3,3-dimethyl-7-oxo-4-thia-1-azabicyclo[3.2.0]heptane-2-carboxylic acid hydrochloride]	0.062	0.5	0.016	1	0.25	8	0.5	0.062	0.125	0.062	0.125	4	16	128	8	128	> 128	> 128	0.125	0.25	MIC ([2]; S. aureus Giorgio, read-out: MIC): 8 µg/mL; MIC [40]: 2 µg/mL; MIC ([13]; Escherichia coli, 5152, E. coli 5152, read-out: MIC): 64 µg/mL; MIC [41]: 8 µg/mL; MIC ([28]; Enterobacter cloacae, 24, E. cloacae 24, read-out: MIC): 0.5 µg/mL; MIC [29]: 4 µg/mL; MIC [30]: 8 µg/mL; MIC [31]: 4 µg/mL; MIC ([32]; Escherichia coli, 4, E. coli 4, read-out: MIC): 0.062 µg/mL; MIC [33]: 8 µg/mL; MIC [34]: 8 µg/mL; MIC [35]: 64 µg/mL; MIC [36]: 0.125 µg/mL; MIC [37]: 8 µg/mL; MIC ([38]; Klebsiella pneumoniae, 4964, K. pneumoniae 4964, read-out: MIC): 4 µg/mL; MIC ([39]; Escherichia coli, 257, E. coli 257, read-out: MIC): 0.062 µg/mL
